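Values below derive from 48-hour exposures of cells grown in 96-well plates, with endpoints linearly interpolated between the two concentrations bracketing the appropriate inhibition level. Abbreviation: GI50, concentration required for 50% inhibition of growth. TGI is the concentration that stops growth completely.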
Key:
Test in all cases: NCI tumour cell line growth inhibition, 48 h
SF-268 CNS = system: SF-268 CNS
CCRF-CEM leukemia = system: CCRF-CEM leukemia
NCI-H226 lung = system: NCI-H226 lung
CAKI-1 renal = system: CAKI-1 renal
TK-10 renal = system: TK-10 renal
HCC-2998 colon = system: HCC-2998 colon
SK-MEL-5 melanoma = system: SK-MEL-5 melanoma
SNB-19 CNS = system: SNB-19 CNS
HOP-92 NSCLC = system: HOP-92 NSCLC
EKVX NSCLC = system: EKVX NSCLC
UACC-62 melanoma = system: UACC-62 melanoma
A549 NSCLC = system: A549 NSCLC
HCT-15 colon = system: HCT-15 colon
SK-MEL-28 melanoma = system: SK-MEL-28 melanoma
NCI-H522 lung = system: NCI-H522 lung
T-47D breast = system: T-47D breast
SW-620 colon = system: SW-620 colon
MCF7 breast = system: MCF7 breast
HCT-116 colon = system: HCT-116 colon
SK-OV-3 ovarian = system: SK-OV-3 ovarian
ACHN renal = system: ACHN renal
LOX IMVI melanoma = system: LOX IMVI melanoma
HOP-62 NSCLC = system: HOP-62 NSCLC
RPMI-8226 leukemia = system: RPMI-8226 leukemia
M14 melanoma = system: M14 melanoma
DU-145 prostate = system: DU-145 prostate
RXF 393 renal = system: RXF 393 renal
OVCAR-4 ovarian = system: OVCAR-4 ovarian
COLO 205 colon = system: COLO 205 colon
NCI-H460 lung = system: NCI-H460 lung
HT29 colon = system: HT29 colon
SF-539 CNS = system: SF-539 CNS
OVCAR-8 ovarian = system: OVCAR-8 ovarian
MDA-MB-231 breast = system: MDA-MB-231 breast
HS 578T breast = system: HS 578T breast
786-0 renal = system: 786-0 renal
IGROV1 ovarian = system: IGROV1 ovarian
BT-549 breast = system: BT-549 breast
MALME-3M melanoma = system: MALME-3M melanoma
SF-295 CNS = system: SF-295 CNS
OVCAR-5 ovarian = system: OVCAR-5 ovarian
PC-3 prostate = system: PC-3 prostate
SNB-75 CNS = system: SNB-75 CNS
MDA-MB-435 = system: MDA-MB-435
A498 renal = system: A498 renal
UACC-257 melanoma = system: UACC-257 melanoma
SN12C renal = system: SN12C renal
U251 CNS = system: U251 CNS
KM12 colon = system: KM12 colon
UO-31 renal = system: UO-31 renal
NCI/ADR-RES ovarian = system: NCI/ADR-RES ovarian
OVCAR-3 ovarian = system: OVCAR-3 ovarian
SK-MEL-2 melanoma = system: SK-MEL-2 melanoma

Q: How did the GI50 (SF-268 CNS) turn out when `N#Cc1nc(-c2ccccc2)oc1S(=O)(=O)N1CCCCC1` was run?
A: The GI50 was 26.6 µM.

Q: And the TGI (SF-268 CNS)?
A: Its TGI is greater than 100 µM.

Q: And the GI50 (CCRF-CEM leukemia)?
A: Its GI50 is 2.36 µM.

Q: And the TGI (CCRF-CEM leukemia)?
A: The TGI was greater than 100 µM.

Q: And the GI50 (NCI-H226 lung)?
A: The GI50 was 10.3 µM.

Q: And the TGI (NCI-H226 lung)?
A: The TGI was 26.5 µM.

Q: And the GI50 (CAKI-1 renal)?
A: Its GI50 is 7.37 µM.

Q: What about the TGI (CAKI-1 renal) of the same molecule?
A: Its TGI is 20.3 µM.

Q: What about the GI50 (TK-10 renal) of the same molecule?
A: Its GI50 is 22.1 µM.

Q: What about the TGI (TK-10 renal) of the same molecule?
A: The TGI was 63.2 µM.

Q: And the GI50 (HCC-2998 colon)?
A: Its GI50 is 17.1 µM.

Q: What about the TGI (HCC-2998 colon) of the same molecule?
A: Its TGI is 32.8 µM.

Q: And the GI50 (SK-MEL-5 melanoma)?
A: Its GI50 is 30.9 µM.

Q: And the TGI (SK-MEL-5 melanoma)?
A: The TGI was greater than 100 µM.

Q: And the GI50 (SNB-19 CNS)?
A: Its GI50 is 72.3 µM.

Q: And the TGI (SNB-19 CNS)?
A: The TGI was greater than 100 µM.

Q: And the GI50 (HOP-92 NSCLC)?
A: The GI50 was 6.29 µM.

Q: And the TGI (HOP-92 NSCLC)?
A: Its TGI is 19.6 µM.

Q: And the GI50 (EKVX NSCLC)?
A: The GI50 was greater than 100 µM.

Q: And the TGI (EKVX NSCLC)?
A: The TGI was greater than 100 µM.

Q: What about the GI50 (UACC-62 melanoma) of the same molecule?
A: Its GI50 is 19.5 µM.

Q: What about the TGI (UACC-62 melanoma) of the same molecule?
A: The TGI was 49.6 µM.

Q: And the GI50 (A549 NSCLC)?
A: Its GI50 is 71.7 µM.

Q: And the TGI (A549 NSCLC)?
A: Its TGI is greater than 100 µM.

Q: What about the GI50 (HCT-15 colon) of the same molecule?
A: Its GI50 is 5.32 µM.

Q: And the TGI (HCT-15 colon)?
A: The TGI was 25.8 µM.

Q: What about the GI50 (SK-MEL-28 melanoma) of the same molecule?
A: The GI50 was 17.5 µM.

Q: And the TGI (SK-MEL-28 melanoma)?
A: The TGI was 33.8 µM.

Q: And the GI50 (NCI-H522 lung)?
A: The GI50 was 2.08 µM.

Q: What about the TGI (NCI-H522 lung) of the same molecule?
A: The TGI was 7.94 µM.

Q: What about the GI50 (T-47D breast) of the same molecule?
A: The GI50 was 16.2 µM.

Q: And the TGI (T-47D breast)?
A: The TGI was 36.8 µM.

Q: And the GI50 (SW-620 colon)?
A: Its GI50 is 4.17 µM.

Q: And the TGI (SW-620 colon)?
A: The TGI was 18.1 µM.

Q: What about the GI50 (MCF7 breast) of the same molecule?
A: Its GI50 is 9.02 µM.

Q: And the TGI (MCF7 breast)?
A: Its TGI is 26.9 µM.

Q: And the GI50 (HCT-116 colon)?
A: The GI50 was 4.95 µM.

Q: What about the TGI (HCT-116 colon) of the same molecule?
A: The TGI was 23.6 µM.

Q: What about the GI50 (SK-OV-3 ovarian) of the same molecule?
A: Its GI50 is greater than 100 µM.

Q: What about the TGI (SK-OV-3 ovarian) of the same molecule?
A: The TGI was greater than 100 µM.

Q: And the GI50 (ACHN renal)?
A: Its GI50 is 4.98 µM.

Q: What about the TGI (ACHN renal) of the same molecule?
A: The TGI was 16.5 µM.

Q: And the GI50 (LOX IMVI melanoma)?
A: Its GI50 is 1.51 µM.

Q: What about the TGI (LOX IMVI melanoma) of the same molecule?
A: Its TGI is 5.24 µM.

Q: What about the GI50 (HOP-62 NSCLC) of the same molecule?
A: Its GI50 is greater than 100 µM.

Q: What about the TGI (HOP-62 NSCLC) of the same molecule?
A: The TGI was greater than 100 µM.

Q: And the GI50 (RPMI-8226 leukemia)?
A: The GI50 was 17.5 µM.

Q: And the TGI (RPMI-8226 leukemia)?
A: Its TGI is 49.5 µM.

Q: What about the GI50 (M14 melanoma) of the same molecule?
A: Its GI50 is 11.2 µM.

Q: What about the TGI (M14 melanoma) of the same molecule?
A: Its TGI is 61 µM.

Q: What about the GI50 (DU-145 prostate) of the same molecule?
A: The GI50 was 15.3 µM.

Q: What about the TGI (DU-145 prostate) of the same molecule?
A: The TGI was 28.6 µM.

Q: What about the GI50 (RXF 393 renal) of the same molecule?
A: Its GI50 is 9.52 µM.

Q: What about the TGI (RXF 393 renal) of the same molecule?
A: The TGI was 22.7 µM.

Q: And the GI50 (OVCAR-4 ovarian)?
A: The GI50 was 14.2 µM.

Q: And the TGI (OVCAR-4 ovarian)?
A: The TGI was 32.3 µM.

Q: And the GI50 (COLO 205 colon)?
A: The GI50 was 2.67 µM.

Q: What about the TGI (COLO 205 colon) of the same molecule?
A: The TGI was 7.1 µM.

Q: What about the GI50 (NCI-H460 lung) of the same molecule?
A: The GI50 was 26.6 µM.

Q: What about the TGI (NCI-H460 lung) of the same molecule?
A: The TGI was greater than 100 µM.

Q: And the GI50 (HT29 colon)?
A: Its GI50 is 12.4 µM.

Q: What about the TGI (HT29 colon) of the same molecule?
A: The TGI was 28.4 µM.

Q: And the GI50 (SF-539 CNS)?
A: The GI50 was 17.5 µM.

Q: What about the TGI (SF-539 CNS) of the same molecule?
A: Its TGI is 34.3 µM.

Q: And the GI50 (OVCAR-8 ovarian)?
A: Its GI50 is 22.1 µM.

Q: And the TGI (OVCAR-8 ovarian)?
A: The TGI was 56.5 µM.

Q: And the GI50 (MDA-MB-231 breast)?
A: Its GI50 is 25.4 µM.

Q: What about the TGI (MDA-MB-231 breast) of the same molecule?
A: The TGI was 80.7 µM.

Q: And the GI50 (HS 578T breast)?
A: Its GI50 is 23.1 µM.

Q: And the TGI (HS 578T breast)?
A: The TGI was 87.2 µM.

Q: And the GI50 (786-0 renal)?
A: Its GI50 is 18.7 µM.

Q: What about the TGI (786-0 renal) of the same molecule?
A: Its TGI is 52.4 µM.

Q: And the GI50 (IGROV1 ovarian)?
A: Its GI50 is 28.7 µM.

Q: And the TGI (IGROV1 ovarian)?
A: The TGI was greater than 100 µM.

Q: What about the GI50 (BT-549 breast) of the same molecule?
A: Its GI50 is 13.7 µM.

Q: What about the TGI (BT-549 breast) of the same molecule?
A: Its TGI is 48.8 µM.

Q: And the GI50 (MALME-3M melanoma)?
A: The GI50 was 10.8 µM.

Q: And the TGI (MALME-3M melanoma)?
A: Its TGI is 32 µM.

Q: What about the GI50 (SF-295 CNS) of the same molecule?
A: Its GI50 is greater than 100 µM.

Q: And the TGI (SF-295 CNS)?
A: The TGI was greater than 100 µM.

Q: What about the GI50 (OVCAR-5 ovarian) of the same molecule?
A: Its GI50 is 21.9 µM.

Q: And the TGI (OVCAR-5 ovarian)?
A: Its TGI is 52.8 µM.

Q: What about the GI50 (PC-3 prostate) of the same molecule?
A: The GI50 was 19.4 µM.

Q: What about the TGI (PC-3 prostate) of the same molecule?
A: The TGI was 53.6 µM.

Q: And the GI50 (SNB-75 CNS)?
A: Its GI50 is 18.3 µM.

Q: And the TGI (SNB-75 CNS)?
A: Its TGI is 43.8 µM.

Q: What about the GI50 (MDA-MB-435) of the same molecule?
A: Its GI50 is 14.6 µM.

Q: And the TGI (MDA-MB-435)?
A: Its TGI is 31.2 µM.

Q: What about the GI50 (A498 renal) of the same molecule?
A: The GI50 was greater than 100 µM.

Q: What about the TGI (A498 renal) of the same molecule?
A: The TGI was greater than 100 µM.

Q: What about the GI50 (UACC-257 melanoma) of the same molecule?
A: Its GI50 is 17.8 µM.

Q: And the TGI (UACC-257 melanoma)?
A: The TGI was 50.4 µM.

Q: And the GI50 (SN12C renal)?
A: The GI50 was 14.9 µM.

Q: And the TGI (SN12C renal)?
A: The TGI was 47.5 µM.

Q: And the GI50 (U251 CNS)?
A: Its GI50 is 17.5 µM.

Q: What about the TGI (U251 CNS) of the same molecule?
A: Its TGI is 36.8 µM.

Q: What about the GI50 (KM12 colon) of the same molecule?
A: The GI50 was 29.1 µM.

Q: What about the TGI (KM12 colon) of the same molecule?
A: Its TGI is greater than 100 µM.

Q: And the GI50 (UO-31 renal)?
A: Its GI50 is 15.1 µM.

Q: What about the TGI (UO-31 renal) of the same molecule?
A: The TGI was 28.3 µM.

Q: And the GI50 (NCI/ADR-RES ovarian)?
A: The GI50 was 30.8 µM.

Q: And the TGI (NCI/ADR-RES ovarian)?
A: Its TGI is greater than 100 µM.

Q: What about the GI50 (OVCAR-3 ovarian) of the same molecule?
A: The GI50 was 10.5 µM.

Q: What about the TGI (OVCAR-3 ovarian) of the same molecule?
A: The TGI was 24.4 µM.

Q: And the GI50 (SK-MEL-2 melanoma)?
A: The GI50 was 15.3 µM.

Q: And the TGI (SK-MEL-2 melanoma)?
A: Its TGI is 45.1 µM.

— PubChem BioAssay (NCI)
